From patent US20150290200A1, “INTRACELLULAR KINASE INHIBITORS” (Pharmacyclics Inc., priority 2006, published 2015)
pIC50: −log10 of the molar value. Where two headings read alike, the source gives them in different places. Each block holds one molecule with its values, some of them ahead of it.

Key:
ITK kinase domain = biological target: T1, ITK kinase domain (Homo sapiens, UniProt Q08881); assay: In vitro kinase assay (HITHUNTER enzyme fragment complementation), ITK; assay type: biochemical
T1 construct: N-terminally His-tagged ITK kinase domain (amino acids 352-617); His (N); made in house
T1 sequence (Q08881 352-617): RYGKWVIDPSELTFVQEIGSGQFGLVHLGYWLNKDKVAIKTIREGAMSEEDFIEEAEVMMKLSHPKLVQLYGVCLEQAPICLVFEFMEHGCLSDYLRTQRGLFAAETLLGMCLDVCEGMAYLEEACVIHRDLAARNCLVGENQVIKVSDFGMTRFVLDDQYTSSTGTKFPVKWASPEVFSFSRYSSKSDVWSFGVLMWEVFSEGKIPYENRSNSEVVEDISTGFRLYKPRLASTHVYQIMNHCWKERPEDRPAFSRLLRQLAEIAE
Method: Compounds were screened using the HITHUNTER™ enzyme fragment complementation method (Discoverx). Briefly, a recombinantly produced, N-terminally His-tagged ITK kinase domain (amino acids 352-617) was incubated with various concentrations of individual compounds. ATP and substrate were added, and the kinase reaction was allowed to proceed for 2-16 hours. Commercially available detection reagents were added and allowed to react for 2-4 hours. The reaction was evaluated by luminescence. Initial results were confirmed using full-length recombinant ITK protein.
In order to confirm the mechanism by which compounds depicted herein interact with the kinase domain of Tec and EGFR kinases, we created a point mutant of the ITK kinase domain, whereby the key amino acid, namely C442 was mutated to alanine. The protein was expressed in a commercial baculovirus expression system using the manufacturer's general protocol (Invitrogen, pBlueBac). Protein was expressed and purified using standard techniques. […] While the activity of WT-ITK was inhibited by compounds depicted in this application, the same compounds had no activity towards the C442A mutant kinase domain.

BTK kinase domain = biological target: T2, BTK kinase domain (Homo sapiens, UniProt Q06187); assay: In vitro kinase assay (HITHUNTER), BTK; assay type: biochemical
T2 construct: The kinase domains of BTK, LCK and ERK were expressed as recombinant purified proteins; made in house
T2 sequence (Q06187 402-655 limits assumed): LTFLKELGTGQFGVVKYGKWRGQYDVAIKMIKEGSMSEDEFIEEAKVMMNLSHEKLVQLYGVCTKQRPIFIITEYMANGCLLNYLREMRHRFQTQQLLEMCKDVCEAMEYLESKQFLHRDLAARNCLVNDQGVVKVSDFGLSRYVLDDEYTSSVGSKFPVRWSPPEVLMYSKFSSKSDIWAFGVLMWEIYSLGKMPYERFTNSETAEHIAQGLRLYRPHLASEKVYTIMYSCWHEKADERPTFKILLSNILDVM
From the text: Similarly, commercially available reagents such as HITHUNTER™ were used to evaluate the effect of compounds on the activity of additional kinases. The kinase domains of BTK, LCK and ERK were expressed as recombinant purified proteins were used for these studies.

[1] = Table 3, naphthyl analog, read-out: IC50 ITK
[2] = Table 3, Compound, read-out: IC50 ITK

pIC50 (ITK kinase domain; [1]): 7.70
pIC50 (BTK kinase domain; Table 3, naphthyl analog): 7.40
Structure (SMILES): O=C(CCN1CCOCC1)c1ccc2ccccc2c1 [drawing 167]

pIC50 (ITK kinase domain; Table 5, read-out: IC50 ITK): 7.07
pIC50 (BTK kinase domain; Table 5): 7.08
Structure (SMILES): NCC1CCN(CCC(=O)c2ccc3ccccc3c2)CC1

pIC50 (ITK kinase domain; Table 5, read-out: IC50 ITK): 7.22
pIC50 (BTK kinase domain; Table 5): 6.62
Structure (SMILES): O=C(CCN1CCN(C(=O)N2CCOCC2)CC1)c1ccc2ccccc2c1

pIC50 (ITK kinase domain; Table 4, read-out: IC50 ITK): 7.22
pIC50 (BTK kinase domain; Table 4): 6.48
Structure (SMILES): O=C(CCN1CCOCC1)c1ccc2sccc2c1

pIC50 (ITK kinase domain; Table 4, read-out: IC50 ITK): 7.38
pIC50 (BTK kinase domain; Table 4): 8.70
Structure (SMILES): O=CNc1ccc2cc(C(=O)CCN3CCOCC3)ccc2c1

pIC50 (ITK kinase domain; Table 7, elimination mechanism, read-out: IC50 ITK): 7.35
Structure (SMILES): O=C(CCN1CCOCC1)c1ccc2ccccc2c1 [drawing 254]

pIC50 (ITK kinase domain; Table 1, ITK, read-out: IC50): 7.88
Structure (SMILES): CC(C)C1CCN(CCC(=O)c2ccc3ccccc3c2)CC1

pIC50 (ITK kinase domain; Table 5, read-out: IC50 ITK): 6.86
pIC50 (BTK kinase domain; Table 5): 5.09
Structure (SMILES): O=C(CCN1CCCC1)c1ccc2ccccc2c1 [drawing 201]

pIC50 (ITK kinase domain; Table 1, ITK, read-out: IC50): 7.30
Structure (SMILES): CN1CCN(CCC(=O)c2ccc3ccccc3c2)CC1 [drawing 110]

IC50 ITK (ITK kinase domain; Table 7, elimination mechanism): no IC50
Structure (SMILES): OC(CCN1CCOCC1)c1ccc2ccccc2c1 (stereo not drawn)

pIC50 (ITK kinase domain; Table 5, read-out: IC50 ITK): 7.51
Structure (SMILES): CN1CCN(CCC(=O)c2ccc3ccccc3c2)CC1 [drawing 208]

pIC50 (ITK kinase domain; Table 4, read-out: IC50 ITK): 4.25
IC50 BTK (BTK kinase domain; Table 4): no IC50
Structure (SMILES): O=C(CCN1CCOCC1)c1cc2ccccc2o1

pIC50 (ITK kinase domain; Table 4, read-out: IC50 ITK): 5.77
IC50 BTK (BTK kinase domain; Table 4): no IC50
Structure (SMILES): O=C(CCN1CCOCC1)c1cc2ccccc2cn1 [drawing 187]

pIC50 (ITK kinase domain; Table 4, read-out: IC50 ITK): 7.52
pIC50 (BTK kinase domain; Table 4): 8.22
Structure (SMILES): O=C(CCN1CCOCC1)c1ccc2cc(O)ccc2c1

pIC50 (ITK kinase domain; [2]): 8.23
pIC50 (BTK kinase domain; Table 3, Compound): 6.11
Structure (SMILES): O=C1COc2ccc(C(=O)CCN3CCOCC3)cc2N1 [drawing 166]

pIC50 (ITK kinase domain; Table 4, read-out: IC50 ITK): 5.48
pIC50 (BTK kinase domain; Table 4): 5.63
Structure (SMILES): O=C(O)c1ccc2cc(C(=O)CCN3CCOCC3)ccc2c1

pIC50 (ITK kinase domain; Table 4, read-out: IC50 ITK): 8.00
pIC50 (BTK kinase domain; Table 4): 7.77
Structure (SMILES): O=C(CCN1CCOCC1)c1cc2ccccc2s1

pIC50 (ITK kinase domain; [1]): 8.05
pIC50 (BTK kinase domain; Table 3, naphthyl analog): 8.18
Structure (SMILES): CN(C)C1CCN(CCC(=O)c2ccc3ccccc3c2)CC1 [drawing 177]

pIC50 (ITK kinase domain; Table 4, read-out: IC50 ITK): 7.70
pIC50 (BTK kinase domain; Table 4): 7.41
Structure (SMILES): O=C(CCN1CCOCC1)c1ccc2ccccc2c1 [drawing 185]

Further lines, the molecule ahead of its results:

Structure (SMILES): CN(CCC(=O)c1ccc2ccccc2c1)Cc1ccco1 [drawing 118]
pIC50 (ITK kinase domain; Table 1, ITK, read-out: IC50): 7.71

Structure (SMILES): CC(C)(C)C(=O)N1CCN(CCC(=O)c2ccc3ccccc3c2)CC1
pIC50 (ITK kinase domain; Table 5, read-out: IC50 ITK): 7.19
pIC50 (BTK kinase domain; Table 5): 6.44

Structure (SMILES): COc1cc2c(cc1OC)CN(CCC(=O)c1ccc3c(c1)NC(=O)CO3)CC2 [drawing 168]
pIC50 (ITK kinase domain; [2]): 7.52
pIC50 (BTK kinase domain; Table 3, Compound): 6.56

Structure (SMILES): CN(CCC(=O)c1ccc2c(c1)NC(=O)CO2)Cc1ccc(F)cc1
pIC50 (ITK kinase domain; [2]): 8.00
pIC50 (BTK kinase domain; Table 3, Compound): 6.52

Structure (SMILES): O=C(CCN1CCc2ccccc2C1)c1ccc2ccccc2c1 [drawing 209]
pIC50 (ITK kinase domain; Table 5, read-out: IC50 ITK): 7.67

Structure (SMILES): O=C(CCNCC1CCNCC1)c1ccc2ccccc2c1
pIC50 (ITK kinase domain; Table 5, read-out: IC50 ITK): 6.79
pIC50 (BTK kinase domain; Table 5): 7.00

Structure (SMILES): O=C(CCN1CCc2ccccc2C1)c1ccc2ccccc2c1 [drawing 115]
pIC50 (ITK kinase domain; Table 1, ITK, read-out: IC50): 7.74

Structure (SMILES): O=C(CCN1CCN(c2ccccn2)CC1)c1ccc2ccccc2c1 [drawing 205]
pIC50 (ITK kinase domain; Table 5, read-out: IC50 ITK): 7.83

Structure (SMILES): CC(C)CN(C)CCC(=O)c1ccc2ccccc2c1
pIC50 (ITK kinase domain; Table 1, ITK, read-out: IC50): 7.87

Structure (SMILES): CC1CCCN1CCC(=O)c1ccc2ccccc2c1 (stereo not drawn)
pIC50 (ITK kinase domain; Table 5, read-out: IC50 ITK): 6.07

Structure (SMILES): CC(C)N(CCC(=O)c1ccc2c(c1)NC(=O)CO2)C(C)C
pIC50 (ITK kinase domain; [2]): 7.64
pIC50 (BTK kinase domain; Table 3, Compound): 6.26

Structure (SMILES): CN(C)C1CCN(CCC(=O)C2=CC3NC(=O)COC3C=C2)C1 (stereo not drawn)
pIC50 (ITK kinase domain; [2]): 7.14
pIC50 (BTK kinase domain; Table 3, Compound): 5.72

Structure (SMILES): O=C(CCN1Cc2ccccc2C1)c1ccc2ccccc2c1 [drawing 114]
pIC50 (ITK kinase domain; Table 1, ITK, read-out: IC50): 7.54

Structure (SMILES): O=C(CCN1CCC(C(=O)c2ccncc2)CC1)c1ccc2ccccc2c1
pIC50 (ITK kinase domain; Table 5, read-out: IC50 ITK): 6.55
pIC50 (BTK kinase domain; Table 5): 6.31

Structure (SMILES): CN(C)C1CCN(CCC(=O)c2ccc3ccccc3c2)C1 (stereo not drawn) [drawing 171]
pIC50 (ITK kinase domain; [1]): 8.15
pIC50 (BTK kinase domain; Table 3, naphthyl analog): 8.67

Structure (SMILES): CN(C)CCC(=O)c1ccc2ccccc2c1
pIC50 (ITK kinase domain; Table 5, read-out: IC50 ITK): 6.79

Structure (SMILES): CN(CCC(=O)c1ccc2ccccc2c1)Cc1ccc(C(F)(F)F)cc1
pIC50 (ITK kinase domain; Table 4, read-out: IC50 ITK): 7.25

Structure (SMILES): CC(C)(CN1CCCCC1)C(=O)c1ccc2ccccc2c1
IC50 ITK (ITK kinase domain; Table 7, elimination mechanism): no IC50

Structure (SMILES): O=C(CCN1CCN(Cc2ccccc2)CC1)c1ccc2ccccc2c1
pIC50 (ITK kinase domain; Table 4, read-out: IC50 ITK): 7.52

Structure (SMILES): O=C(CCN1CCC(CNC(=O)C(F)(F)F)CC1)c1ccc2ccccc2c1
pIC50 (ITK kinase domain; Table 5, read-out: IC50 ITK): 6.66
pIC50 (BTK kinase domain; Table 5): 6.58

Structure (SMILES): CN(CCC(=O)c1ccc2ccccc2c1)Cc1ccco1 [drawing 215]
pIC50 (ITK kinase domain; Table 5, read-out: IC50 ITK): 7.73

Structure (SMILES): COc1cc2c(cc1OC)CN(CCC(=O)c1ccc3ccccc3c1)CC2 [drawing 212]
pIC50 (ITK kinase domain; Table 5, read-out: IC50 ITK): 8.14
pIC50 (BTK kinase domain; Table 5): 6.94

Structure (SMILES): O=C(CCN1CCC(Cc2ccccc2)CC1)c1ccc2ccccc2c1 [drawing 182]
pIC50 (ITK kinase domain; Table 4, read-out: IC50 ITK): 7.03
